Test results published in patent US20200371122A1, “BIOMARKER FOR SENESCENT CELLS” (Buck Institute for Research on Aging, priority 2017, published 2020).

System: naïve nonsenescent IMR-90 fibroblasts
Assay: Conditioned media from senescent cells applied to naive IMR-90 fibroblasts (Col1a2, ACTA2 qPCR)
Assay type: cell-based, human
Description: RNA was extracted from cells or tissues using commercially available kits (Isolate II—Bioline for cells; Direct-zol—Zymo for tissues) according to the manufacturer's instructions. cDNA synthesis was performed using a High Capacity cDNA Reverse Transcription Kit (Thermo Fisher) according to the manufacturer's instructions. Quantitative PCR was performed on a LightCycler 480 II (Roche) using primers and probes designed for the Universal Probe Library. Primers and probes used for human transcripts were ACTB: 5′-CCAACCGCGAGAAGATGA (SEQ ID NO:1), 5′-TCCATCACGATGCCAGTG (SEQ ID NO:2), Probe #64; TUBA: 5′-cttcgtctccgccatcag (SEQ ID NO:3), 5′-ttgccaatctggacacca (SEQ ID NO:4), Probe #58; ALOX5: 5′-[…] (SEQ ID NO:5), 5′-[…] (SEQ ID NO:6), Probe #64; ALOX5AP: 5′-ggtctgcggggctacttt (SEQ ID NO:7), 5′-[…] (SEQ ID NO:8), Probe #18; ALOX12: 5′-[…] (SEQ ID NO:9), 5′-agccaggtcgtcaggag (SEQ ID NO:10), Probe #32; ALOX15: 5′-[…] (SEQ ID NO:11), 5′-[…] (SEQ ID NO:12), Probe #76; ALOX15B: 5′-[…] (SEQ ID NO:13), 5′-actgggaggcgaagaagg (SEQ ID NO:14), Probe #51; AKR1C1: 5′-catgcctgtcctgggattt (SEQ ID NO:15), 5′-[…] (SEQ ID NO:16), Probe #49; AKR1C2: 5′-ctatgcgcctgcagaggt (SEQ ID NO:17), 5′-[…] (SEQ ID NO:18), Probe #31; AKR1C3: 5′-[…] (SEQ ID NO:19), 5′-[…] (SEQ ID NO:20), Probe #78; CYSLTR2: 5′-[…] (SEQ ID NO:21), 5′-[…] (SEQ ID NO:22), Probe #18; DPEP1: 5′-gacgtcctgaggctggtg (SEQ ID NO:23), 5′-[…] (SEQ ID NO:24), Probe #9 (SEQ ID NO:25), ELOVL2: 5′-[…] (SEQ ID NO:26), 5′-[…] (SEQ ID NO:27), Probe #53; ELOVL4: 5′-catttggcccatggattc (SEQ ID NO:28), 5′-[…] (SEQ ID NO:29), Probe #31; ELOVL5: 5′-cccttccatgcgtccata (SEQ ID NO:30), 5′-[…] (SEQ ID NO:31), Probe #31; EPHX2: 5′-ttctgctggacaccctgaa (SEQ ID NO:32), 5′-[…] (SEQ ID NO:33), Probe #45; GPX4: 5′-ttcccgtgtaaccagttcg (SEQ ID NO:34), 5′-[…] (SEQ ID NO:35), Probe #36; LTA4H: 5′-ctgctctcacggtccagtc (SEQ ID NO:36), 5′-[…] (SEQ ID NO:37), Probe #64; LTBR2: 5′-[…] (SEQ ID NO:38), 5′-[…] (SEQ ID NO:39), Probe #33; LTC4S: 5′-[…] (SEQ ID NO:40), 5′-[…] (SEQ ID NO:41), Probe #18; PTGDS: 5′-[…] (SEQ ID NO:42), 5′-[…] (SEQ ID NO:43), Probe #36; PTGES: 5′-agagatgcctgcccacag (SEQ ID NO:44), 5′-tggccaccacgtacatctt (SEQ ID NO:45), Probe #4; PTGES2: 5′-[…] (SEQ ID NO:46), 5′-[…] (SEQ ID NO:47), Probe #49; PTGES3 (SEQ ID NO:48), 5′-[…] (SEQ ID NO:49), 5′-[…] (SEQ ID NO:50), Probe #48; PTGIS: 5′-[…] (SEQ ID NO:51), 5′-[…] (SEQ ID NO:52), Probe #45; PTGR1: 5′-atgatggggcagcaagtg (SEQ ID NO:53), 5′-cccatcagaaatggagtgc (SEQ ID NO:54), Probe #64; PTGS1: 5′-[…] (SEQ ID NO:55), 5′-gtggtggtccatgttcctg (SEQ ID NO:56), Probe #81; PTGS2: 5′-gatccccagggctcaaac (SEQ ID NO:57), 5′-[…] (SEQ ID NO:58), Probe #61; TBXAS1: 5′-[…] (SEQ ID NO:59), 5′-tgcctcccgtgtgaatct (SEQ ID NO:60), Probe #73; AREG: 5′-[…] (SEQ ID NO:61), 5′-[…] […]

| Compound | decline of ACTA2 induction at Day 20 relative to Day 2 (Day 20 CM) | collagen expression induced by CM from senescent cells (Day 2 CM, with or without TGF-beta, donor cells treated 24 h) | collagen expression induced by CM from senescent cells (Day 20 CM in the presence of TGF-beta) | smooth muscle actin expression (ACTA2) (regardless of time point) |
| --- | --- | --- | --- | --- |
| CS(=O)(=O)Nc1ccc([N+](=O)[O-])cc1OC1CCCCC1 [NS-398] | abrogated this decline |  |  |  |
| CC(c1cc2ccccc2s1)N(O)C(N)=O (stereo not shown) [zileuton] |  | prevented this effect | again prevented | no effect |
